In patent publication US8026221B2, “Method, composition and kit for antigenic binding of norwalk-like viruses” (Children's Hospital Medical Center, priority 2002, dated 2011):

Test system: NV
Assay: Binding of synthetic histo-blood antigen with NLV after glycosidase digestion
Set-up: species or system Norwalk Virus
Settings: after digestion with α-N-acetylgalactosaminidase
From the text: Thus, the corresponding NLV could not be bound.

Substance: GalNAc-α1→3 (Fuc-α1→2) Gal β-O-space) nBSA [A trisaccharide-BSA]
- Binding with NLV after removal of the antigenic determinant sugar epitope: losses binding
